# Experiment: recombinant UMI read abundance after kanamycin selection (control-corrected) (log10(CPM+1)); higher = more efficient recombination; extreme values may be limits of the assay; sequences stand for … in AGTGCAGAGAAAATCGGCCAGTTTTCTCTGCCTGCAGTCCGCATGCCGTGGGACCCCTTGGGTTCTAACCTGTTGCCTAGATTTATGCAGCGGACTGCCTTTCTCCCAAAGTGATAAACCGG…AGGTTGGTTTCACT; site = the 11-nt donor
# Procedure, shortened: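 The measure is log10(CPM+1) for recombinant UMIs. These were PCR-amplified across the donor–target junction and sequenced after Escherichia coli carrying a donor and donor-binding-loop pair library and a target plasmid with T7-inducible IS621 bridge recombinase was plated on IPTG (0.07 mM) plus kanamycin or unselected. CPM were averaged over two replicates and scaled by control-derived factors.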
# 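Note: IS621 bridge recombinase in Escherichia coli cells against a fixed T5 target plasmid.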
row,Sequence,recombinant UMI read abundance (log10)
1,CTTATCTCATGGACCGGTTTTCCCGGTAATCCGTATTTGTA (site CTTATCTCTTA),2.27
2,CTTATCTCATGGACCGGTTTTCCCGGTAATCCGTATTTGTA (site CTTCTCTCTTA),0.475
3,CTTATCTCATGGACCGGTTTTCCCGGTAATCCGTATTTGTA (site CTTGTCTCTTA),0.606
4,CTTATCTCATGGACCGGTTTTCCCGGTAATCCGTATTTGTA (site CTTTTCTCTTA),0.00641
5,CTTCACACATGGACCGGTTTTCCCGGTAATCCGTATTTGTA (site CTTCACACTTA),0.61
6,CTTCCGCCATGGACCGGTTTTCCCGGTAATCCGTATTTGAG (site CTTCCGCCTCT),0.0295
7,CTTCGACCATGGACCGGTTTTCCCGGTAATCCGTATTTGCA (site CTTCGACCTTG),0
8,CTTCGAGCATGGACCGGTTTTCCCGGTAATCCGTATTTGTT (site CTTCGAGCTAA),1.59
9,CTTCGTCCATGGACCGGTTTTCCCGGTAATCCGTATTTGTT (site CTTCGTCCTAA),0.0114
10,CTTCTATCATGGACCGGTTTTCCCGGTAATCCGTATTTGTA (site CTTCTATCTTA),1.62
11,CTTCTATCATGGACCGGTTTTCCCGGTAATCCGTATTTGTA (site CTTCTCTCTTA),0.0109
12,CTTCTATCATGGACCGGTTTTCCCGGTAATCCGTATTTGTA (site CTTCTGTCTTA),0
13,CTTCTATCATGGACCGGTTTTCCCGGTAATCCGTATTTGTA (site CTTCTTTCTTA),0
14,CTTCTCACATGGACCGGTTTTCCCGGTAATCCGTATTTGTA (site CTTCTCACTTA),0.336
15,CTTCTCACATGGACCGGTTTTCCCGGTAATCCGTATTTGTA (site CTTCTCCCTTA),0.00809
16,CTTCTCACATGGACCGGTTTTCCCGGTAATCCGTATTTGTA (site CTTCTCGCTTA),0.0103
17,CTTCTCACATGGACCGGTTTTCCCGGTAATCCGTATTTGTA (site CTTCTCTCTTA),0
18,CTTCTCTCATGGACCGGTTTTCCCGGTAATCCGTATTTGCA (site CTTCTCTCTTA),0.866
19,CTTCTCTCATGGACCGGTTTTCCCGGTAATCCGTATTTGCA (site CTTCTCTCTTC),0
20,CTTCTCTCATGGACCGGTTTTCCCGGTAATCCGTATTTGCA (site CTTCTCTCTTG),2.46
21,CTTCTCTCATGGACCGGTTTTCCCGGTAATCCGTATTTGCA (site CTTCTCTCTTT),0.83
22,CTTCTCTCATGGACCGGTTTTCCCGGTAATCCGTATTTGCT (site CTTCTCTCTAG),2.48
23,CTTCTGCCATGGACCGGTTTTCCCGGTAATCCGTATTTGGG (site CTTCTGCCTCC),0.0114

row,Sequence,recombinant UMI read abundance (log10)
1,CTTGACTCATGGACCGGTTTTCCCGGTAATCCGTATTTGTA (site CTTGACTCTTA),2.26
2,CTTGAGACATGGACCGGTTTTCCCGGTAATCCGTATTTGGT (site ATTGAGACTAC),0.141
3,CTTGAGACATGGACCGGTTTTCCCGGTAATCCGTATTTGGT (site CTTGAGACTAC),1.03
4,CTTGAGACATGGACCGGTTTTCCCGGTAATCCGTATTTGGT (site GTTGAGACTAC),0.00699
5,CTTGAGACATGGACCGGTTTTCCCGGTAATCCGTATTTGGT (site TTTGAGACTAC),0.00972
6,CTTGCATCATGGACCGGTTTTCCCGGTAATCCGTATTTGAT (site CTTGCATCTAT),0.497
7,CTTGCGGCATGGACCGGTTTTCCCGGTAATCCGTATTTGCT (site ATTGCGGCTAG),0.00273
8,CTTGCGGCATGGACCGGTTTTCCCGGTAATCCGTATTTGCT (site CTTGCGGCTAG),0.82
9,CTTGCGGCATGGACCGGTTTTCCCGGTAATCCGTATTTGCT (site GTTGCGGCTAG),0.00591
10,CTTGCGGCATGGACCGGTTTTCCCGGTAATCCGTATTTGCT (site TTTGCGGCTAG),0
11,CTTGCGGCATGGACCGGTTTTCCCGGTAATCCGTATTTGGG (site CTTGCGGCTCC),0.0147
12,CTTGGTCCATGGACCGGTTTTCCCGGTAATCCGTATTTGCG (site CTTGGTCCTCG),0.00731
13,CTTGTGTCATGGACCGGTTTTCCCGGTAATCCGTATTTGGG (site CTTGTGTCTCC),0.208
14,GAAAACCCATGGACCGGTTTTCCCGGTAATCCGTATTTGAT (site GAAAACCCTAT),0
15,GAAAAGGCATGGACCGGTTTTCCCGGTAATCCGTATTTGTT (site GAAAAGGCTAA),2.58
16,GAAAATGCATGGACCGGTTTTCCCGGTAATCCGTATTTGAG (site GAAAATGCTCT),2.25
17,GAAACCACATGGACCGGTTTTCCCGGTAATCCGTATTTGGT (site GAAACCACTAC),0.48
18,GAAAGTCCATGGACCGGTTTTCCCGGTAATCCGTATTTGGA (site GAAAGTCCTTC),0.0128
19,GAACATACATGGACCGGTTTTCCCGGTAATCCGTATTTGGG (site GAACATACTCC),0.24
20,GAACGTACATGGACCGGTTTTCCCGGTAATCCGTATTTGCT (site GAACGTACTAG),2.26
21,GAAGATACATGGACCGGTTTTCCCGGTAATCCGTATTTGTT (site GAAGATACTAA),2.29
22,GAAGATACATGGACCGGTTTTCCCGGTAATCCGTATTTGTT (site GAAGATCCTAA),0.00569
23,GAAGATACATGGACCGGTTTTCCCGGTAATCCGTATTTGTT (site GAAGATGCTAA),0.602

row,Sequence,recombinant UMI read abundance (log10)
1,GAAGATACATGGACCGGTTTTCCCGGTAATCCGTATTTGTT (site GAAGATTCTAA),0
2,GAAGATTCATGGACCGGTTTTCCCGGTAATCCGTATTTGTT (site AAAGATTCTAA),1.45
3,GAAGATTCATGGACCGGTTTTCCCGGTAATCCGTATTTGTT (site CAAGATTCTAA),1.81
4,GAAGATTCATGGACCGGTTTTCCCGGTAATCCGTATTTGTT (site GAAAATTCTAA),0.371
5,GAAGATTCATGGACCGGTTTTCCCGGTAATCCGTATTTGTT (site GAACATTCTAA),0
6,GAAGATTCATGGACCGGTTTTCCCGGTAATCCGTATTTGTT (site GAAGAATCTAA),1.3
7,GAAGATTCATGGACCGGTTTTCCCGGTAATCCGTATTTGTT (site GAAGACTCTAA),1.24
8,GAAGATTCATGGACCGGTTTTCCCGGTAATCCGTATTTGTT (site GAAGAGTCTAA),0.0122
9,GAAGATTCATGGACCGGTTTTCCCGGTAATCCGTATTTGTT (site GAAGATACTAA),0.46
10,GAAGATTCATGGACCGGTTTTCCCGGTAATCCGTATTTGTT (site GAAGATCCTAA),1.92
11,GAAGATTCATGGACCGGTTTTCCCGGTAATCCGTATTTGTT (site GAAGATGCTAA),0.0075
12,GAAGATTCATGGACCGGTTTTCCCGGTAATCCGTATTTGTT (site GAAGATTCTAA),2.86
13,GAAGATTCATGGACCGGTTTTCCCGGTAATCCGTATTTGTT (site GAAGATTCTAC),0.242
14,GAAGATTCATGGACCGGTTTTCCCGGTAATCCGTATTTGTT (site GAAGATTCTAG),0.838
15,GAAGATTCATGGACCGGTTTTCCCGGTAATCCGTATTTGTT (site GAAGATTCTAT),1.5
16,GAAGATTCATGGACCGGTTTTCCCGGTAATCCGTATTTGTT (site GAAGATTCTCA),0.868
17,GAAGATTCATGGACCGGTTTTCCCGGTAATCCGTATTTGTT (site GAAGATTCTGA),0
18,GAAGATTCATGGACCGGTTTTCCCGGTAATCCGTATTTGTT (site GAAGATTCTTA),1.2
19,GAAGATTCATGGACCGGTTTTCCCGGTAATCCGTATTTGTT (site GAAGCTTCTAA),0.0109
20,GAAGATTCATGGACCGGTTTTCCCGGTAATCCGTATTTGTT (site GAAGGTTCTAA),0.0539
21,GAAGATTCATGGACCGGTTTTCCCGGTAATCCGTATTTGTT (site GAAGTTTCTAA),0
22,GAAGATTCATGGACCGGTTTTCCCGGTAATCCGTATTTGTT (site GAATATTCTAA),0

# — the supplement of paper PMC11208160
